# Tests used:
# [1] = Hepatocyte Stability Assay, rat; assay type: in vitro ADME; settings: for Rat hepatocyte clearance: rat hepatocytes; as to all read-outs here: tested at 1 µM
# Experimental: • Preparation of working solutions: 10 mM stock solutions of test compound and positive control were prepared in DMSO. In separate conical tubes, the 10 mM solution of test compound and the positive control were diluted to 100 μM by combining 198 μL of 50% acetonitrile/50% water and 2 μL of 10 mM stock.
# Preparation of Hepatocytes: Incubation medium (William's E Medium supplemented with GlutaMAX) and hepatocyte thawing medium were placed in a 37° C. water bath and allowed warming for at least 15 minutes prior to use. A vial of cryopreserved hepatocytes was transferred from storage, ensuring that vials remained at cryogenic temperatures until thawing process ensued. Cells were thawed by placing the vial in a 37° C. water bath and gently shaking the vials for 2 minutes. After thawing was completed, vial was sprayed with 70% ethanol and transferred to a biosafety cabinet. Wide-bore pipette tip were used to transfer hepatocytes into 50 mL conical tube containing thawing medium. The 50 mL conical tube were placed into a centrifuge and spun at 100 g for 10 minutes. Upon completion of spin, thawing medium was aspirated and resuspended hepatocytes in enough incubation medium to yield ˜1.5×10^6 cells/mL. Using an AO/PI Staining, cells were counted and the viable cell density was determined. Cells with poor viability (<75% viability) were determined to be not acceptable for use. Cells were diluted with incubation medium to a working cell density of 0.5×10^6 viable cells/mL.
# Procedure for Stability Determination: 198 μL of hepatocytes were pipetted into each wells of a 96-well non-coated plate. The plate was placed in the incubator to allow the hepatocytes to warm for 10 minutes. 2 μL of the 100 μM test compound or positive control solutions were pipetted into respective wells of the 96-well non-coated plate to start the reaction. The plate was returned to the incubator for the designed time points. Well contents was transferred in 25 μL aliquots at time points of 0, 15, 30, 60, 90 and 120 minutes. The aliquots were then mixed with 6 volumes (150 μL) of acetonitrile containing internal standard, IS (100 nM alprazolam, 200 nM caffeine and 100 nM tolbutamide) to terminate the reaction. The mixture was vortex for 5 minutes. Samples were centrifuged for 45 minutes at 3,220 g. An aliquot of 100 μL of the supernatant was diluted by 100 μL ultra-pure water, and the mixture was used for LC/MS/MS analysis. All incubations were performed in duplicate.
# Data Analysis: All calculations were carried out using Microsoft Excel. Peak areas were determined from extracted ion chromatograms. In vitro half-life (t1/2) of parent compound was determined by regression analysis of the percent parent disappearance vs. time curve.
# The in vitro half-life (in vitro t1/2) was determined from the slope value:
# Conversion of the in vitro t1/2 (in min) into the in vitro intrinsic clearance (in vitro CLint, in μL/min/1×10^6 cells) was done using the following equation (mean of duplicate determinations):
# V=incubation volume(0.2 mL);
# N=number of hepatocytes per well(0.1×10^6 cells).
# “+++” indicates a CLint value less than 20 mL/min/Kg, “++” indicates a CLint between 20 and 50 mL/min/Kg, and “+” indicates an CLint above 50 mL/min/Kg.
# AHR = target: T1, AHR (Homo sapiens, UniProt P35869); assay: DRE-Luciferase Reporter Assay, HepG2 AhR-Lucia reporter cells; assay type: cell-based; settings: with AHR activating ligand at EC50, read-out: HepG2-Luc IC50
# T1 construct: other cell line with a DRE-luciferase reporter stably transfected; endogenous in cells; host or cells: HepG2 AhR-Lucia reporter cells
# T1 sequence (P35869 11-848): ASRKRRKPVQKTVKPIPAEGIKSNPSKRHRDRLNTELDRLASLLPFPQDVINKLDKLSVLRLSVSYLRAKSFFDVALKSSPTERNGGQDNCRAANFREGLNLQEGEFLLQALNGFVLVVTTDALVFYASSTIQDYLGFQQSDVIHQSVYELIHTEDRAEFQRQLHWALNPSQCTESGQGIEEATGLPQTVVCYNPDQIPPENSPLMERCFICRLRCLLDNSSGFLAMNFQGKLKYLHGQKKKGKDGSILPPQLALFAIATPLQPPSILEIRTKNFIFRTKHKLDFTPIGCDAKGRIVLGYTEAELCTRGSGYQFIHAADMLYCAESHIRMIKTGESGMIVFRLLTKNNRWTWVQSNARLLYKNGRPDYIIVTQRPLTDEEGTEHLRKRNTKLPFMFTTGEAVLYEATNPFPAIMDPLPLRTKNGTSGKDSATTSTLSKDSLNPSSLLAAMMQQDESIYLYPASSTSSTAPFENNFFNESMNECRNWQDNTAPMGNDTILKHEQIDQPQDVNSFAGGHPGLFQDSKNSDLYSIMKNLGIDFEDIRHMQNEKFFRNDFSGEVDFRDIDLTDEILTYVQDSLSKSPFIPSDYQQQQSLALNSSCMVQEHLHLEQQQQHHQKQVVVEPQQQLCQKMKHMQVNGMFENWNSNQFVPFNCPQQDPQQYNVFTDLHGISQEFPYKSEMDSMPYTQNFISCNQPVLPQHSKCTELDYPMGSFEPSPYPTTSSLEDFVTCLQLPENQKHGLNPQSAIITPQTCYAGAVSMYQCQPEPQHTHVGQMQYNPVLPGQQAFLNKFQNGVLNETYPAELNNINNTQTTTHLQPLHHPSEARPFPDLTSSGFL
# How it was run: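 Antagonism read as inhibition of agonist-driven secreted luciferase in stably DRE-reporter-transfected cells such as HepG2 AhR-Lucia. Agonist ligand at EC50 concentration added 1 hr post-plating alongside antagonist (log series, top 100 uM); supernatant read at 24 or 48 h, IC50 derived against agonist-only maximum.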
IC50 (AHR) [µM],Compound,Rat hepatocyte clearance [1],Suspension Rat heps Clint (% Qh) ([1]; suspension rat hepatocytes)
< 0.1,C[C@@H](CO)n1cnc2c(-c3cccc(F)c3)nc(-c3ccc(C(F)(F)F)nc3)cc2c1=O [Compound 8],++ (“++” indicates a CLint between 20 and 50 mL/min/Kg),
< 0.1,C[C@@H](CO)n1cnc2c(-c3cccnc3)nc(-c3ccc(OC(F)(F)F)cc3)cc2c1=O [Compound 22],++ (“++” indicates a CLint between 20 and 50 mL/min/Kg),
< 0.1,"O=c1c2cc(-c3ccc(Cl)cc3)nc(-c3cccnc3)c2ncn1C[C@@H](O)C(F)(F)F (single isomer, unassigned) [185 enantiomer 1]",++ (“++” indicates a CLint between 20 and 50 mL/min/Kg),
< 0.1,"O=c1c2cc(-c3ccc(Cl)cc3)nc(-c3cccnc3)c2ncn1C[C@H](O)C(F)(F)F (single isomer, unassigned) [185 enantiomer 2]",++ (“++” indicates a CLint between 20 and 50 mL/min/Kg),
< 0.1,C[C@@H](n1cnc2c(-c3cccnc3)nc(-c3ccc(Cl)cc3)cc2c1=O)C(C)(C)O [Compound 33],++ (“++” indicates a CLint between 20 and 50 mL/min/Kg),
< 0.1,"C[C@@H](CO)n1cnc2c(-c3cncc(F)c3)nc(-c3ccc(OC(F)(F)F)cc3)cc2c1=O [Compound 1, (S)-8-(5-fluoropyridin-3-yl)-3-(1-hydroxypropan-2-yl)-6-(4-(trifluoromethoxy)phenyl)pyrido[3,4-d]pyrimidin-4(3H)-one]",++ (“++” indicates a CLint between 20 and 50 mL/min/Kg),

# Further lines, the compound ahead of its results:
Compound,IC50 (AHR) [µM],Rat hepatocyte clearance [1],Suspension Rat heps Clint (% Qh) ([1]; suspension rat hepatocytes)
"Cc1ccc(-c2cc3c(=O)n([C@@H](C)CO)cnc3c(-c3cccnc3)n2)cc1 [Compound 17, (S)-3-(1-hydroxypropan-2-yl)-8-(pyridin-3-yl)-6-(p-tolyl)pyrido[3,4-d]pyrimidin-4(3H)-one]",< 0.1,+ (“+” indicates an CLint above 50 mL/min/Kg),
Cn1cc(-c2nc(-c3ccc(Cl)cc3)cc3c(=O)n(CC(C)(C)O)cnc23)cn1 [Compound 21],< 0.1,+++ (“+++” indicates a CLint value less than 20 mL/min/Kg),
C[C@@H](CO)n1cnc2c(-c3cnn(C)c3)nc(-c3ccc(Cl)cc3)cc2c1=O [Compound 27],< 0.1,+++ (“+++” indicates a CLint value less than 20 mL/min/Kg),
"C[C@@H](CO)n1cnc2c(-c3cccc(F)c3)nc(-c3ccc(C(F)(F)F)cn3)cc2c1=O [Compound 47, (S)-8-(3-fluorophenyl)-3-(1-hydroxypropan-2-yl)-6-(5-(trifluoromethyl)pyridin-2-yl)pyrido[3,4-d]pyrimidin-4(3H)-one]",< 0.1,+++ (“+++” indicates a CLint value less than 20 mL/min/Kg),
"Cn1cc(-c2nc(-c3ccc(C(F)(F)F)cn3)cc3c(=O)n(CC(C)(C)O)cnc23)cn1 [Compound 103, 3-(2-hydroxy-2-methylpropyl)-8-(1-methyl-1H-pyrazol-4-yl)-6-(5-(trifluoromethyl)pyridin-2-yl)pyrido[3,4-d]pyrimidin-4(3H)-one]",< 0.1,++ (“++” indicates a CLint between 20 and 50 mL/min/Kg),
C[C@@H](CO)n1cnc2c(-c3cccnc3)nc(-c3ccc(C(F)(F)F)nc3)cc2c1=O [Compound 12],< 0.1,+++ (“+++” indicates a CLint value less than 20 mL/min/Kg),
"C[C@@H](CO)n1cnc2c(-n3ccnc3)nc(-c3ccc(OC(F)(F)F)cc3)cc2c1=O [Compound 44, (S)-3-(1-hydroxypropan-2-yl)-8-(1H-imidazol-1-yl)-6-(4-(trifluoromethoxy)-phenyl)pyrido[3,4-d]pyrimidin-4(3H)-one]",< 0.1,+++ (“+++” indicates a CLint value less than 20 mL/min/Kg),
CC(C)(O)Cn1cnc2c(-c3cccnc3)nc(-c3ccc(C(F)(F)F)nc3)cc2c1=O [Compound 9],< 0.1,+++ (“+++” indicates a CLint value less than 20 mL/min/Kg),< 24
C[C@@H](n1cnc2c(-c3cnn(C)c3)nc(-c3ccc(Cl)cc3)cc2c1=O)C(C)(C)O [Compound 31],< 0.1,++ (“++” indicates a CLint between 20 and 50 mL/min/Kg),
Cn1cc(-c2nc(-c3ccc(C(F)(F)F)nc3)cc3c(=O)n(CC(C)(C)O)cnc23)cn1 [Compound 60],< 0.1,+++ (“+++” indicates a CLint value less than 20 mL/min/Kg),

# Source: patent publication US20230295152A1 (SENDA BIOSCIENCES, INC., priority 2019, published 2023)
